14 compounds from patent US20170121315A1, “HETEROBICYCLICALLY SUBSTITUTED 4-OXOBUTANE ACID DERIVATIVES AND USE THEREOF” (priority 2014, published 2017) can be followed below.

Holding throughout (assay type): biochemical
The target of one assay is T1, MMP-16 (Homo sapiens, UniProt P51512).
T1 construct: purchased R&D Systems 1785-MP
Kind of assay: In vitro MMP-16 inhibition test. The conditions noted are these: human MMP-16. From the text:
(§1) The MMP-mediated amidolytic cleavage of a suitable peptide substrate leads to an increase in fluorescent light here too. The signal intensity of the fluorescent light is directly proportional to the enzyme activity. The active concentration of a test compound at which half the enzyme is inhibited (50% signal intensity of the fluorescent light) is reported as the IC50 value.
Recombinant MMP-16 (R&D Systems, 1785-MP) is enzymatically activated in accordance with the manufacturer's instructions using recombinant furin (R&D Systems, 1503-SE). 1 μl of the test compound to be analysed (as a solution in DMSO, suitable concentrations e.g. 1 nM to 30 μM) is pipetted into 24 μl of activated enzyme (final concentration e.g. 1 nM) in reaction buffer (50 mM Tris/HCl pH 7.5, 10 mM CaCl2, 150 mM NaCl, 0.05% Brij®-35) in a white 384-hole microtiter plate (MTP). The enzymatic reaction is started by adding the intramolecularly quenched Mca-Lys-Pro-Leu-Gly-Leu-Dpa(Dnp)-Ala-Arg-NH2 substrate (final concentration e.g. 5 μM; R&D Systems, ES-010), so as to result in a total test volume of 50 μl. The course of the MMP-16 reaction is measured by measuring the fluorescence intensity (excitation 320 nm, emission 410 nm) over a suitable period of time (e.g. over 120 min at a temperature of 32° C.).

In a further assay the target is T2, MMP-10 (Homo sapiens, UniProt P09238).
T2 construct: purchased R&D Systems 910-MP
T2 sequence (P09238 99-476): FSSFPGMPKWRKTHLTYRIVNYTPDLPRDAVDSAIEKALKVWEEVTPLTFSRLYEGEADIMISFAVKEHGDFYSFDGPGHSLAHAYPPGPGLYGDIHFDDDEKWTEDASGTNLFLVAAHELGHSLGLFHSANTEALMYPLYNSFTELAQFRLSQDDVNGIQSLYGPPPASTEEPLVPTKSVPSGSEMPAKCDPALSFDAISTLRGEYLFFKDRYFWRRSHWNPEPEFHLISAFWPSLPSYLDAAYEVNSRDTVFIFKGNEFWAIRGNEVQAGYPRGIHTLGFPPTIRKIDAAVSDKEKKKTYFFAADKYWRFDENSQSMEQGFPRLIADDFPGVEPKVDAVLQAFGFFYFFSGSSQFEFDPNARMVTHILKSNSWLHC
Kind of assay: In vitro MMP-10 inhibition test. The settings on record: human MMP-10.
Description: as §1
(§2) Recombinant MMP-10 (R&D Systems, 910-MP) is chemically activated in accordance with the manufacturer's instructions using APMA. 1 μl of the test compound to be analysed (as a solution in DMSO, suitable concentrations e.g. 1 nM to 30 μM) is pipetted into 24 μl of activated enzyme (final concentration e.g. 2 nM) in reaction buffer (50 mM Tris/HCl pH 7.5, 10 mM CaCl2, 150 mM NaCl, 0.05% Brij®-35) in a white 384-hole microtiter plate (MTP). The enzymatic reaction is started by adding the intramolecularly quenched Mca-Arg-Pro-Lys-Pro-Val-Glu-Nval-Trp-Arg-Lys(Dnp)-NH2 substrate (final concentration e.g. 10 μM; R&D Systems, ES-002), so as to result in a total test volume of 50 μl. The course of the MMP-10 reaction is measured by measuring the fluorescence intensity (excitation 320 nm, emission 410 nm) over a suitable period of time (e.g. over 120 min at a temperature of 32° C.).

The target in the next assay is T3, MMP-7 (Homo sapiens, UniProt P09237).
T3 construct: purchased R&D Systems 907-MP
T3 sequence (P09237 95-267): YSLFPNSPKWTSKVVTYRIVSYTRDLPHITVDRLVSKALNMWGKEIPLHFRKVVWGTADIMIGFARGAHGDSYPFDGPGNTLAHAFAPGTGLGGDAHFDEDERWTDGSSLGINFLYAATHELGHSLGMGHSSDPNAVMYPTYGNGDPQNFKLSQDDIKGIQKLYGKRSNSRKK
Kind of assay: In vitro MMP-7 inhibition test. The conditions noted are these: human MMP-7.
Description: as §1
as §2, with “Recombinant MMP-7 (from R&D” for “Recombinant MMP-10 (R&D”, “Systems, 907-MP)” for “Systems, 910-MP)”, “e.g. 0.5” for “e.g. 2”, “quenched Mca-Pro-Leu-Gly-Leu-Dpa(Dnp)-Ala-Arg-NH2” for “quenched Mca-Arg-Pro-Lys-Pro-Val-Glu-Nval-Trp-Arg-Lys(Dnp)-NH2”, “Systems, ES-001),” for “Systems, ES-002),”, “the MMP-7” for “the MMP-10”

The next assay concerns the target T4, MMP-3 (Homo sapiens, UniProt P08254).
T4 construct: purchased R&D Systems 513-MP
Kind of assay: In vitro MMP-3 inhibition test. The conditions noted are these: human MMP-3.
Description: as §1
as §2, with “MMP-3” for “MMP-10”, “513-MP)” for “910-MP)”

A value given as a limit tells only on which side of the number the result lay.

T1 sequence (P51512 120-564 limits assumed): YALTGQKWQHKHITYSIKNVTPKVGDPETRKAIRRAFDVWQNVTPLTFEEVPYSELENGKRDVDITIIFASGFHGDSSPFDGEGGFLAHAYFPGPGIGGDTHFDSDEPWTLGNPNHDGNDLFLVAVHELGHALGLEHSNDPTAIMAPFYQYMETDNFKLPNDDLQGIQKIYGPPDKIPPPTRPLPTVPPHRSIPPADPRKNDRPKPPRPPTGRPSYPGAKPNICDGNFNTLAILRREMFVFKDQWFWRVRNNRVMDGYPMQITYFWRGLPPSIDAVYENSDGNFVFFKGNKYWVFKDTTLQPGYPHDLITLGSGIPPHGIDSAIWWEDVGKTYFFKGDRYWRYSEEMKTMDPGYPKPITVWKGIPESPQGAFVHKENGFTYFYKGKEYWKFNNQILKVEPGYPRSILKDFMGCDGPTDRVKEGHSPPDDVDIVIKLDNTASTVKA
T4 sequence (P08254 100-477): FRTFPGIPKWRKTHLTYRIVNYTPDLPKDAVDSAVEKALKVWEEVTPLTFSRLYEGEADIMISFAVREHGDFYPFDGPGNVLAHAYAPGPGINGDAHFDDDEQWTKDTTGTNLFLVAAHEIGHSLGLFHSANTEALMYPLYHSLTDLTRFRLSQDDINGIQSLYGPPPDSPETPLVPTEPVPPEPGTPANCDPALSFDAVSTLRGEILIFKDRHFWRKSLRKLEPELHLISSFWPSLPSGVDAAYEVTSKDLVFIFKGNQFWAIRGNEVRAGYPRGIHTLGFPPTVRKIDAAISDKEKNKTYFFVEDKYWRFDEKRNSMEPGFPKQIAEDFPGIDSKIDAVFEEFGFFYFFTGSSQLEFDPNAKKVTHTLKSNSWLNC

The term IC50 denotes the concentration that inhibits the measured activity by half. Lower therefore signals greater potency. For `O=C(CC(CCn1nnc2ccccc2c1=O)C(=O)O)c1cc2cc(OCc3ccc(F)cc3)ccc2o1` (single isomer, unassigned; (+)) [Example 23, (+)-4-{5-[(4-Fluorobenzyl)oxy]-1-benzofur-2-yl}-4-oxo-2-[2-(4-oxo-1,2,3-benzotriazin-3(4H)-yl)ethyl]butanoic acid], the IC50 at MMP-16 is 30 µM; at MMP-10, 11 µM; at MMP-7, more than 40 µM; on MMP-3, more than 40 µM.
For the compound `O=C(C[C@H](CCn1nnc2ccccc2c1=O)C(=O)O)c1noc2cc(OCC3CCOCC3)ccc12` (single isomer, unassigned; enantiomer 2) [Example 135], the IC50 on MMP-16 was 36 µM; against MMP-10 it was 9 µM; against MMP-7 it was more than 40 µM; against MMP-3 it was 12 µM.
Taken in the same sequence, the figures for `O=C(CC(CCn1nnc2ccccc2c1=O)C(=O)O)c1coc2cc(OCCC3CCCC3)ccc12` (racemic) [Example 75, (+/−)-4-[6-(2-Cyclopentylethoxy)-1-benzofur-3-yl]-4-oxo-2-[2-(4-oxo-1,2,3-benzotriazin-3(4H)-yl)ethyl]butanoic acid] were more than 40 µM, 7.7 µM, more than 40 µM and more than 40 µM.
`CCCCCOc1ccc2cc(C(=O)CC(CCn3nnc4ccccc4c3=O)C(=O)O)sc2c1` (racemic) [Example 118, (+/−)-4-Oxo-2-[2-(4-oxo-1,2,3-benzotriazin-3(4H)-yl)ethyl]-4-[6-(pentyloxy)-1-benzothiophen-2-yl]butanoic acid]: the 50% inhibitory concentration (IC50) on MMP-16 is more than 40 µM; at MMP-10, 10 µM; against MMP-7, 30 µM; against MMP-3 it was 16 µM.
For `O=C(CC(CCn1nnc2ccccc2c1=O)C(=O)O)c1onc2cc(OCc3ccccc3)ccc12` (racemic) [Example 156, (+/−)-4-[6-(Benzyloxy)-2,1-benzoxazol-3-yl]-4-oxo-2-[2-(4-oxo-1,2,3-benzotriazin-3(4H)-yl)ethyl]butanoic acid] the same measures were 38 µM, 28 µM, more than 40 µM and 13 µM.
In the case of `O=C(CC(CCn1nnc2ccc(C(F)(F)F)cc2c1=O)C(=O)O)c1noc2cc(OCC3CCOCC3)ccc12` (racemic) [Example 155, (+/−)-4-Oxo-2-{2-[4-oxo-6-(trifluoromethyl)-1,2,3-benzotriazin-3(4H)-yl]ethyl}-4-[6-(tetrahydro-2H-pyran-4-ylmethoxy)-1,2-benzoxazol-3-yl]butanoic acid], the IC50 came to 30 µM at MMP-16, 5.1 µM at MMP-10, 24 µM against MMP-7 and 19 µM at MMP-3.
In the case of `O=C(CC(CCn1nnc2ccccc2c1=O)C(=O)O)c1noc2cc(OCC3CCCCC3)ccc12` (racemic) [Example 153, (+/−)-4-[6-(Cyclohexylmethoxy)-1,2-benzoxazol-3-yl]-4-oxo-2-[2-(4-oxo-1,2,3-benzotriazin-3(4H)-yl)ethyl]butanoic acid], the IC50 at MMP-16 is more than 40 µM; at MMP-10, 14 µM; against MMP-7, more than 40 µM; at MMP-3, 12 µM.
With `CCCCCOc1ccc2c(C(=O)CC(CCn3nnc4ccccc4c3=O)C(=O)O)coc2c1` (single isomer, unassigned) [Example 91, 4-Oxo-2-[2-(4-oxo-1,2,3-benzotriazin-3(4H)-yl)ethyl]-4-[6-(pentyloxy)-1-benzofur-3-yl]butanoic acid], the half-maximal inhibitory concentration (IC50) on MMP-16 was 13 µM; on MMP-10 it was 4.7 µM; against MMP-7 it was more than 40 µM; at MMP-3 it was 17 µM.
Taken in the same sequence, the figures for `O=C(CC(CCn1nnc2ccccc2c1=O)C(=O)O)c1cc2ccc(OCCCC3CCCCC3)cc2o1` (racemic) [Example 71, (+/−)-4-[6-(3-Cyclohexylpropoxy)-1-benzofur-2-yl]-4-oxo-2-[2-(4-oxo-1,2,3-benzotriazin-3(4H)-yl)ethyl]butanoic acid] were more than 40 µM, more than 40 µM, more than 40 µM and more than 40 µM.
On to `O=C(CC(CCn1nnc2ccccc2c1=O)C(=O)O)c1cc2ccc(OCC3CC3)cc2s1` (racemic) [Example 111, (+/−)-4-[6-(Cyclopropylmethoxy)-1-benzothiophen-2-yl]-4-oxo-2-[2-(4-oxo-1,2,3-benzotriazin-3(4H)-yl)ethyl]butanoic acid], for which the IC50 at MMP-16 was more than 40 µM; at MMP-10, 4.7 µM; against MMP-7 it was 4.1 µM; on MMP-3, 9.7 µM.
As to `O=C(CC(CCn1nnc2ccccc2c1=O)C(=O)O)c1cc2cc(OCc3ccccc3)ccc2o1` (single isomer, unassigned; (+)) [Example 30, (+)-4-[5-(Benzyloxy)-1-benzofur-2-yl]-4-oxo-2-[2-(4-oxo-1,2,3-benzotriazin-3(4H)-yl)ethyl]butanoic acid], the IC50 against MMP-16 is more than 40 µM; on MMP-10, 30 µM; against MMP-7, more than 40 µM; on MMP-3 it was more than 40 µM.
For the compound `O=C(CC(CCn1nnc2ccccc2c1=O)C(=O)O)c1cc2cc(OCCc3ccccc3Cl)ccc2o1` (racemic) [Example 1, (+/−)-4-{5-[2-(2-Chlorophenyl)ethoxy]-1-benzofur-2-yl}-4-oxo-2-[2-(4-oxo-1,2,3-benzotriazin-3(4H)-yl)ethyl]butanoic acid], the half-maximal inhibitory concentration (IC50) on MMP-16 was more than 40 µM; on MMP-10 it was 28 µM; on MMP-7 it was more than 40 µM; against MMP-3, more than 40 µM.
On to `Cc1cccc(COc2ccc3oc(C(=O)CC(CCn4nnc5ccccc5c4=O)C(=O)O)cc3c2)c1` (racemic) [Example 51, (+/−)-4-{5-[(3-Methylbenzyl)oxy]-1-benzofur-2-yl}-4-oxo-2-[2-(4-oxo-1,2,3-benzotriazin-3(4H)-yl)ethyl]butanoic acid], for which the IC50 on MMP-16 is more than 40 µM; against MMP-10 it was 36 µM; against MMP-7, 35 µM; against MMP-3 it was more than 40 µM.
As for `NC(=O)c1cccc(COc2ccc3oc(C(=O)CC(CCn4nnc5ccccc5c4=O)C(=O)O)cc3c2)c1` (single isomer, unassigned; (+)) [Example 34, (+)-4-{5-[(3-Carbamoylbenzyl)oxy]-1-benzofur-2-yl}-4-oxo-2-[2-(4-oxo-1,2,3-benzotriazin-3(4H)-yl)ethyl]butanoic acid], the IC50 is more than 40 µM against MMP-16, 14 µM against MMP-10, 25 µM at MMP-7 and 34 µM at MMP-3.
